# Assay results reported in patent publication US20230085307A1, “PYRIDAZINONE COMPOUND AND HERBICIDE” (NISSAN CHEMICAL CORPORATION, priority 2019, published 2023).
# Key:
# lambsquarters = assay: Test Example 4: herbicidal effect by soil treatment (Table 19, symbol O); assay type: in vivo, lambsquarters (Chenopodium album); conditions: amount of applied herbicide 320 g/ha
# How it was run: (§1)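 In this soil treatment, the formulated compound reached the seeds only through the soil: seeds were buried about 1.5 cm deep in sterilized diluvial soil, then the diluted emulsion was sprayed over the surface. After three weeks at 25° C. to 30° C. in a greenhouse, effects were graded on criteria from an earlier test.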
# wild oat [1] = assay: Test Example 4: herbicidal effect by soil treatment (Table 19, symbol I); assay type: in vivo, wild oat (Avena fatua); conditions: amount of applied herbicide 320 g/ha
# How it was run: as §1
# barnyard grass [2] = assay: Test Example 3: herbicidal effect by foliage application, Wagner pot (Table 18, symbol H); assay type: in vivo, barnyard grass (Echinochloa crus-galli); conditions: amount of applied herbicide 320 g/ha
# How it was run: (§2)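 Plants were sown in alluvial soil held under 0.1–0.5 cm standing water and grown 14 days in a greenhouse at 25–30 °C. An emulsifiable formulation, water-diluted to the set dose, was then sprayed onto the foliage, and effects were scored three weeks later using previously defined criteria.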
# chickweed [3] = assay: Test Example 5: herbicidal effect by foliage application, plastic box (Table 20, symbol P); assay type: in vivo, common chickweed (Stellaria media); conditions: foliage application, AAH 320 g/ha, evaluated three weeks after application
# How it was run: (§3)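 Plants were sown into sterilized diluvial soil under about 1.5 cm cover and kept in a greenhouse at 25° C. to 30° C. Fourteen days on, foliage received an even spray of the diluted emulsion. Herbicidal or crop effect was judged three weeks afterwards.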
# redroot pigweed [4] = assay: Test Example 4: herbicidal effect by soil treatment (Table 19, symbol N); assay type: in vivo, redroot pigweed (Amaranthus retroflexus); conditions: amount of applied herbicide 320 g/ha
# How it was run: as §1
# velvetleaf [5] = assay: Test Example 5: herbicidal effect by foliage application, plastic box (Table 20, symbol M); assay type: in vivo, velvetleaf (Abutilon theophrasti); conditions: foliage application, AAH 320 g/ha, evaluated three weeks after application
# How it was run: as §3
# chickweed [6] = assay: Test Example 4: herbicidal effect by soil treatment (Table 19, symbol P); assay type: in vivo, common chickweed (Stellaria media); conditions: amount of applied herbicide 320 g/ha
# How it was run: as §1
# blackgrass = assay: Test Example 5: herbicidal effect by foliage application, plastic box (Table 20, symbol J); assay type: in vivo, blackgrass (Alopecurus myosuroides); conditions: foliage application, AAH 320 g/ha, evaluated three weeks after application
# How it was run: as §3
# Italian ryegrass [7] = assay: Test Example 5: herbicidal effect by foliage application, plastic box (Table 20, symbol K); assay type: in vivo, Italian ryegrass (Lolium multiflorum); conditions: foliage application, AAH 320 g/ha, evaluated three weeks after application
# How it was run: as §3
# rice flat sedge = assay: Test Example 3: herbicidal effect by foliage application, Wagner pot (Table 18, symbol E); assay type: in vivo, rice flat sedge (Cyperus iria); conditions: amount of applied herbicide 320 g/ha
# How it was run: as §2
# Italian ryegrass [8] = assay: Test Example 4: herbicidal effect by soil treatment (Table 19, symbol K); assay type: in vivo, Italian ryegrass (Lolium multiflorum); conditions: amount of applied herbicide 320 g/ha
# How it was run: as §1
# wild oat [9] = assay: Test Example 5: herbicidal effect by foliage application, plastic box (Table 20, symbol I); assay type: in vivo, wild oat (Avena fatua); conditions: foliage application, AAH 320 g/ha, evaluated three weeks after application
# How it was run: as §3
# Japanese bulrush = assay: Test Example 2: herbicidal activity, application during weed generation under submerged conditions (Table 17, symbol B); assay type: in vivo, Japanese bulrush (Schoenoplectus juncoides); conditions: AAH 320 g/ha; application during weed generation, submerged conditions
# How it was run: (§4)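 Effect on each weed is rated three weeks post-treatment, using the same scoring criteria as the preceding test. Plants grow from mixed-sown seed in flooded alluvial soil (4 cm water) at 25° C. to 30° C., and are treated at one to two leaves with diluted emulsion dropped onto the water.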
# velvetleaf [10] = assay: Test Example 4: herbicidal effect by soil treatment (Table 19, symbol M); assay type: in vivo, velvetleaf (Abutilon theophrasti); conditions: amount of applied herbicide 320 g/ha
# How it was run: as §1
# southern crabgrass = assay: Test Example 4: herbicidal effect by soil treatment (Table 19, symbol F); assay type: in vivo, southern crabgrass (Digitaria ciliaris); conditions: amount of applied herbicide 320 g/ha
# How it was run: as §1
# persian speedwell = assay: Test Example 5: herbicidal effect by foliage application, plastic box (Table 20, symbol R); assay type: in vivo, Persian speedwell (Veronica persica); conditions: foliage application, AAH 320 g/ha, evaluated three weeks after application
# How it was run: as §3
# barnyard grass [11] = assay: Test Example 4: herbicidal effect by soil treatment (Table 19, symbol H); assay type: in vivo, barnyard grass (Echinochloa crus-galli); conditions: amount of applied herbicide 320 g/ha
# How it was run: as §1
# redroot pigweed [12] = assay: Test Example 5: herbicidal effect by foliage application, plastic box (Table 20, symbol N); assay type: in vivo, redroot pigweed (Amaranthus retroflexus); conditions: foliage application, AAH 320 g/ha, evaluated three weeks after application
# How it was run: as §3
# windgrass = assay: Test Example 5: herbicidal effect by foliage application, plastic box (Table 20, symbol L); assay type: in vivo, windgrass (Apera spica-venti); conditions: foliage application, AAH 320 g/ha, evaluated three weeks after application
# How it was run: as §3
# green foxtail [13] = assay: Test Example 4: herbicidal effect by soil treatment (Table 19, symbol G); assay type: in vivo, green foxtail (Setaria viridis); conditions: amount of applied herbicide 320 g/ha
# How it was run: as §1
# green foxtail [14] = assay: Test Example 5: herbicidal effect by foliage application, plastic box (Table 20, symbol G); assay type: in vivo, green foxtail (Setaria viridis); conditions: foliage application, AAH 320 g/ha, evaluated three weeks after application
# How it was run: as §3
# late watergrass = assay: Test Example 2: herbicidal activity, application during weed generation under submerged conditions (Table 17, symbol A); assay type: in vivo, late watergrass (Echinochloa oryzicola); conditions: AAH 320 g/ha; application during weed generation, submerged conditions
# How it was run: as §4
Compound,herbicidal effect on O: lambsquarters (lambsquarters),herbicidal effect on I: wild oat (wild oat [1]),herbicidal effect on H: barnyard grass (barnyard grass [2]),"P: chickweed, herbicidal effect (criteria 0-5) (chickweed [3])",herbicidal effect on N: redroot pigweed (redroot pigweed [4]),"M: velvetleaf, herbicidal effect (criteria 0-5) (velvetleaf [5])",herbicidal effect on P: chickweed (chickweed [6]),"J: blackgrass, herbicidal effect (criteria 0-5) (blackgrass)","K: Italian ryegrass, herbicidal effect (criteria 0-5) (Italian ryegrass [7])",herbicidal effect on E: rice flat sedge (rice flat sedge),herbicidal effect on K: Italian ryegrass (Italian ryegrass [8]),"I: wild oat, herbicidal effect (criteria 0-5) (wild oat [9])","herbicidal effect rating, B: Japanese bulrush (Japanese bulrush)",herbicidal effect on M: velvetleaf (velvetleaf [10]),herbicidal effect on F: southern crabgrass (southern crabgrass),"R: persian speedwell, herbicidal effect (criteria 0-5) (persian speedwell)",herbicidal effect on H: barnyard grass (barnyard grass [11]),"N: redroot pigweed, herbicidal effect (criteria 0-5) (redroot pigweed [12])","L: windgrass, herbicidal effect (criteria 0-5) (windgrass)",herbicidal effect on G: green foxtail (green foxtail [13]),other results
Cc1nn(C)c(=O)c(-c2c(-c3ccc(C#N)cc3)sc3ccc(F)cc23)c1O [2-340],5 (Herbicidal rate of 90% or more (almost completely withered)),3 (Herbicidal rate of 40% or more and less than 70%),5 (Herbicidal rate of 90% or more (almost completely withered)),5 (Herbicidal rate of 90% or more (almost completely withered)),5 (Herbicidal rate of 90% or more (almost completely withered)),5 (Herbicidal rate of 90% or more (almost completely withered)),5 (Herbicidal rate of 90% or more (almost completely withered)),5 (Herbicidal rate of 90% or more (almost completely withered)),5 (Herbicidal rate of 90% or more (almost completely withered)),5 (Herbicidal rate of 90% or more (almost completely withered)),5 (Herbicidal rate of 90% or more (almost completely withered)),5 (Herbicidal rate of 90% or more (almost completely withered)),4 (Herbicidal rate of 70% or more and less than 90%),5 (Herbicidal rate of 90% or more (almost completely withered)),5 (Herbicidal rate of 90% or more (almost completely withered)),5 (Herbicidal rate of 90% or more (almost completely withered)),5 (Herbicidal rate of 90% or more (almost completely withered)),5 (Herbicidal rate of 90% or more (almost completely withered)),4 (Herbicidal rate of 70% or more and less than 90%),5 (Herbicidal rate of 90% or more (almost completely withered)),"G: green foxtail, herbicidal effect (criteria 0-5) (green foxtail [14]): 5 (Herbicidal rate of 90% or more (almost completely withered)); herbicidal effect rating, A: late watergrass (late watergrass): 5 (Herbicidal rate of 90% or more (almost completely withered))"
CCCC(=O)Oc1c(C)nn(C)c(=O)c1-c1c(-c2ccc(F)c(F)c2)sc2ccc(F)cc12 [2-345],4 (Herbicidal rate of 70% or more and less than 90%),1 (Herbicidal rate of 5% or more and less than 20%),5 (Herbicidal rate of 90% or more (almost completely withered)),5 (Herbicidal rate of 90% or more (almost completely withered)),5 (Herbicidal rate of 90% or more (almost completely withered)),5 (Herbicidal rate of 90% or more (almost completely withered)),3 (Herbicidal rate of 40% or more and less than 70%),0 (Herbicidal rate of 5% or less (almost no effect)),3 (Herbicidal rate of 40% or more and less than 70%),5 (Herbicidal rate of 90% or more (almost completely withered)),0 (Herbicidal rate of 5% or less (almost no effect)),3 (Herbicidal rate of 40% or more and less than 70%),5 (Herbicidal rate of 90% or more (almost completely withered)),3 (Herbicidal rate of 40% or more and less than 70%),3 (Herbicidal rate of 40% or more and less than 70%),5 (Herbicidal rate of 90% or more (almost completely withered)),4 (Herbicidal rate of 70% or more and less than 90%),5 (Herbicidal rate of 90% or more (almost completely withered)),1 (Herbicidal rate of 5% or more and less than 20%),5 (Herbicidal rate of 90% or more (almost completely withered)),"G: green foxtail, herbicidal effect (criteria 0-5) (green foxtail [14]): 5 (Herbicidal rate of 90% or more (almost completely withered)); herbicidal effect rating, A: late watergrass (late watergrass): 5 (Herbicidal rate of 90% or more (almost completely withered))"
Cc1nn(C)c(=O)c(-c2c(-c3ccc(Cl)cc3F)sc3ccc(F)cc23)c1O [2-348],5 (Herbicidal rate of 90% or more (almost completely withered)),0 (Herbicidal rate of 5% or less (almost no effect)),5 (Herbicidal rate of 90% or more (almost completely withered)),5 (Herbicidal rate of 90% or more (almost completely withered)),3 (Herbicidal rate of 40% or more and less than 70%),5 (Herbicidal rate of 90% or more (almost completely withered)),3 (Herbicidal rate of 40% or more and less than 70%),4 (Herbicidal rate of 70% or more and less than 90%),4 (Herbicidal rate of 70% or more and less than 90%),5 (Herbicidal rate of 90% or more (almost completely withered)),2 (Herbicidal rate of 20% or more and less than 40%),5 (Herbicidal rate of 90% or more (almost completely withered)),2 (Herbicidal rate of 20% or more and less than 40%),1 (Herbicidal rate of 5% or more and less than 20%),1 (Herbicidal rate of 5% or more and less than 20%),5 (Herbicidal rate of 90% or more (almost completely withered)),3 (Herbicidal rate of 40% or more and less than 70%),5 (Herbicidal rate of 90% or more (almost completely withered)),5 (Herbicidal rate of 90% or more (almost completely withered)),4 (Herbicidal rate of 70% or more and less than 90%),"G: green foxtail, herbicidal effect (criteria 0-5) (green foxtail [14]): 5 (Herbicidal rate of 90% or more (almost completely withered)); herbicidal effect rating, A: late watergrass (late watergrass): 3 (Herbicidal rate of 40% or more and less than 70%)"
